Assay results as given in patent publication US20220257621A1, “CANCER CELL PROLIFERATION SUPPRESSION AGENT AND COMPOSITION FOR SUPPRESSING PROLIFERATION OF CANCER CELLS” (SHOWA DENKO K.K., priority 2019, published 2022).

Columns and labels:
[1] = system: normal human epidermal keratinocytes (NHEK); experiment: Effect (1) of suppressing ROS production induced by atmospheric dust (ROS assay kit, fluorescence); format: cell-based
Procedure: The effect of the inositol derivative on suppressing ROS production in normal human epidermal keratinocytes (NHEK, manufactured by KURABO INDUSTRIES LTD.) was measured under the following conditions. The NHEK cells were seeded in a HuMedia KG2 medium manufactured by KURABO INDUSTRIES LTD. at the seeding density of 10000 cells/cm^2, and cultured for 24 hours under the conditions of 37° C. and 5% CO2. Next, an aqueous solution of the inositol derivative or an aqueous solution of myo-inositol was added to the culture medium so that the final concentration of the inositol derivative or myo-inositol was 0.001% by mass, or water (pure water) was added to the culture medium, and culturing was further performed for 24 hours. Thereafter, 0.1 mL of a DMSO solution of atmospheric dust (NIST 1648a) was added per 100 mL of the culture medium so that the final concentration of the atmospheric dust in the culture medium was 500 μg/mL, and culturing was further performed for 48 hours in the same conditions as above. Thereafter, the ROS production amount was measured using a ROS assay kit (manufactured by OZ BIOSCIENCES). […] After washing the cells with PBS again, 100 μL of PBS was added, and the fluorescence intensity at an excitation wavelength of 485 nm/an absorption wavelength of 535 nm was measured with a microplate reader i-Control (manufactured by Tecan Group Ltd.). […]

[2] = system: cell line derived from Lewis lung carcinoma (LLC); experiment: Effect of suppressing invasion of cancer cells (CytoSelect invasion assay kit); format: cell-based; conditions: sample 0.001% by mass 24 h, then atmospheric dust 500 μg/mL 6 h + 18 h, fluorescence relative to control without dust = 1, dust + water = 1.67
Procedure: The effect of the inositol derivative on suppressing the invasion of cancer in a cell line derived from Lewis lung carcinoma (LLC, JCRB Cell Bank) was measured under the following conditions. A CytoSelect invasion assay kit manufactured by Cell Biolabs, Inc. was used for a test. The LLC cells were seeded in a chamber plate for invasion tests attached to the above-mentioned invasion assay kit so that the concentration was 100000 cells/mL using a culture medium in which a Ham F10 medium and an L15 medium (both manufactured by Sigma-Aldrich) were mixed at the ratio of 3:7 (volume ratio), and cultured for 24 hours under the conditions of 37° C. and 5% CO2. Next, an aqueous solution of the inositol derivative or an aqueous solution of myo-inositol was added to the culture medium so that the final concentration of the inositol derivative or myo-inositol was 0.001% by mass, or water (pure water) was added to the culture medium, and culturing was further performed for 24 hours. […] Thereafter, the cells were stained using the above-mentioned invasion assay kit, and the fluorescence intensity at an excitation wavelength of 480 nm/an absorption wavelength of 570 nm was measured with a microplate reader i-Control (manufactured by Tecan Group Ltd.). […]

## O[C@H]1[C@H](O)[C@@H](O)[C@H](O)[C@@H](O)[C@H]1O [myo-Inositol, myo-inositol]
[1]; 0.001% by mass, atmospheric dust 500 μg/mL
  Effect of suppressing ROS production as compared to the water-added group: not recognized
[1]; sample 0.001% by mass 24 h, then atmospheric dust 500 μg/mL 48 h, fluorescence relative to control without dust = 1, dust + water = 1.46
  Relative ROS production amount: 1.83
[2]
  Relative cell invasion: 1.53
